PubChem BioAssay AID248 (DTP/NCI, 2004)
Values joined by “and” are separate entries in the source; they are usually repeats but may differ in a detail not shown here. Equal values may be shown once. Toxic doses and inconclusive results are not listed. Cut-off read from the data, not from the text of the source: active = T/C of 150% or more; inactive = T/C below 125%.

Tested on: L1210 leukemia ip in BDF1 mice, survival T/C
Experiment: NCI In Vivo Anticancer Drug Screen. Data for tumor model L1210 Leukemia (intraperitoneal) in B6D2F1 (BDF1) mice
Details: endpoint: mean survival time, higher = longer survival
In short: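 Antitumor effect is assessed in tumor-bearing animals. Survival in the compound arm is compared with a vehicle-dosed control arm and expressed as their quotient.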

[1] = dose: 100.0 mg/kg/injection, schedule: Q04DX002 (ip), vehicle: Klucel (hydroxypropylcellulose) (HPC)
[2] = dose: 100.0 mg/kg/injection, schedule: Q01DX009 (ip), vehicle: Klucel (hydroxypropylcellulose) (HPC)
[3] = dose: 100.0 mg/kg/injection, schedule: Q04DX003 (ip), vehicle: Klucel (hydroxypropylcellulose) (HPC)
[4] = dose: 200.0 mg/kg/injection, schedule: Q04DX003 (ip), vehicle: Klucel (hydroxypropylcellulose) (HPC)
[5] = dose: 400.0 mg/kg/injection, schedule: Q04DX003 (ip), vehicle: Klucel (hydroxypropylcellulose) (HPC)
[6] = dose: 12.5 mg/kg/injection, schedule: Q01DX009 (ip), vehicle: saline
[7] = dose: 25.0 mg/kg/injection, schedule: Q01DX009 (ip), vehicle: saline
[8] = dose: 100.0 mg/kg/injection, schedule: Q04DX003 (ip), vehicle: saline
[9] = dose: 200.0 mg/kg/injection, schedule: Q04DX003 (ip), vehicle: saline

Measured: T/C

O=C(COc1ccc(Cl)cc1Cl)Nc1c(Cl)cc(Cl)cc1Cl
inactive: [1] 99 % of control | dose: 200.0 mg/kg/injection, schedule: Q04DX002 (ip), vehicle: Klucel (hydroxypropylcellulose) (HPC) 108 % of control | dose: 400.0 mg/kg/injection, schedule: Q04DX002 (ip), vehicle: Klucel (hydroxypropylcellulose) (HPC) 86 % of control

O=C(O)[C@H](O)[C@@H](O)C(=O)O.[Ga]
inactive: dose: 100.0 mg/kg/injection, schedule: Q01DX001 (ip), vehicle: saline 106 % of control | dose: 200.0 mg/kg/injection, schedule: Q01DX001 (ip), vehicle: saline 100 % of control | dose: 400.0 mg/kg/injection, schedule: Q01DX001 (ip), vehicle: saline 104 % of control

OCCCNc1nc2cc(Cl)ccc2c2ccc(Cl)cc12
inactive: [2] 90 % of control | [3] 88 % of control | [4] 97 % of control | [5] 103 % of control

CNCCCC1c2ccccc2C=Cc2ccccc21
inactive: dose: 3.12 mg/kg/injection, schedule: Q01DX009 (ip), vehicle: saline 100 % of control | dose: 6.25 mg/kg/injection, schedule: Q01DX009 (ip), vehicle: saline 96 % of control | [6] 101 % of control | [7] 100 % of control | dose: 25.0 mg/kg/injection, schedule: Q04DX003 (ip), vehicle: saline 90 % of control | dose: 50.0 mg/kg/injection, schedule: Q04DX003 (ip), vehicle: saline 101 % of control

Cc1ccc(S(=O)(=O)Nc2c(C)cc([N+](=O)[O-])cc2C)cc1
inactive: dose: 50.0 mg/kg/injection, schedule: Q01DX001 (ip), vehicle: carboxymethylcellulose (CMC) 119 % of control | dose: 100.0 mg/kg/injection, schedule: Q01DX001 (ip), vehicle: carboxymethylcellulose (CMC) 96 % of control | dose: 200.0 mg/kg/injection, schedule: Q01DX001 (ip), vehicle: carboxymethylcellulose (CMC) 102 % of control | dose: 400.0 mg/kg/injection, schedule: Q01DX001 (ip), vehicle: carboxymethylcellulose (CMC) 100 % of control

COc1cc(/C=N/N)cc(OC)c1OC
inactive: dose: 25.0 mg/kg/injection, schedule: Q04DX002 (ip), vehicle: Klucel (hydroxypropylcellulose) (HPC) 117 % of control | dose: 50.0 mg/kg/injection, schedule: Q04DX002 (ip), vehicle: Klucel (hydroxypropylcellulose) (HPC) 117 % of control | [1] 98 % of control and 109 % of control

CC1(Br)Cc2ccccc2C1=O (centres undefined)
inactive: dose: 100.0 mg/kg/injection, schedule: Q04DX003 (ip), vehicle: saline with Tween-80 107 % of control | dose: 200.0 mg/kg/injection, schedule: Q04DX003 (ip), vehicle: saline with Tween-80 94 % of control | dose: 400.0 mg/kg/injection, schedule: Q04DX003 (ip), vehicle: saline with Tween-80 103 % of control

CC1(C)N=C(N)N=C(N)N1c1ccc(OCCOc2ccc(S(=O)(=O)F)cc2)cc1
inactive: dose: 100.0 mg/kg/injection, schedule: Q01DX001 (ip), vehicle: gum acacia 101 % of control | dose: 200.0 mg/kg/injection, schedule: Q01DX001 (ip), vehicle: gum acacia 98 % of control | dose: 400.0 mg/kg/injection, schedule: Q01DX001 (ip), vehicle: gum acacia 103 % of control

Cc1ccc(S(=O)NOCCCCONS(=O)c2ccc(C)cc2)cc1 (centres undefined)
inactive: dose: 100.0 mg/kg/injection, schedule: Q01DX001 (ip), vehicle: saline with Tween-80 98 % of control | dose: 100.0 mg/kg/injection, schedule: Q01DX009 (ip), vehicle: saline with Tween-80 100 % of control and 89 % of control | dose: 100.0 mg/kg/injection, schedule: Q04DX002 (ip), vehicle: saline with Tween-80 96 % of control and 91 % of control | dose: 200.0 mg/kg/injection, schedule: Q01DX001 (ip), vehicle: saline with Tween-80 95 % of control | dose: 200.0 mg/kg/injection, schedule: Q01DX009 (ip), vehicle: saline with Tween-80 86 % of control and 87 % of control | dose: 200.0 mg/kg/injection, schedule: Q04DX002 (ip), vehicle: saline with Tween-80 93 % of control and 98 % of control | dose: 400.0 mg/kg/injection, schedule: Q01DX001 (ip), vehicle: saline with Tween-80 106 % of control | dose: 400.0 mg/kg/injection, schedule: Q01DX009 (ip), vehicle: saline with Tween-80 90 % of control | dose: 400.0 mg/kg/injection, schedule: Q04DX002 (ip), vehicle: saline with Tween-80 104 % of control and 105 % of control

C=CCN(CC=C)c1ccccc1
inactive: [2] 93 % of control | [3] 108 % of control | dose: 200.0 mg/kg/injection, schedule: Q01DX009 (ip), vehicle: Klucel (hydroxypropylcellulose) (HPC) 107 % of control | [4] 101 % of control | dose: 400.0 mg/kg/injection, schedule: Q01DX009 (ip), vehicle: Klucel (hydroxypropylcellulose) (HPC) 112 % of control | [5] 101 % of control

Nc1ccn(C2OC(CO)C(O)C2O)c(=NC(CO)C(=O)O)n1 (centres undefined)
inactive: dose: 100.0 mg/kg/injection, schedule: Q01DX005 (ip), vehicle: saline 117 % of control | dose: 200.0 mg/kg/injection, schedule: Q01DX005 (ip), vehicle: saline 120 % of control

Cc1cc(C)[nH]c(=O)n1
inactive: dose: 100.0 mg/kg/injection, schedule: Q01DX009 (ip), vehicle: saline 98 % of control | [8] 100 % of control | dose: 200.0 mg/kg/injection, schedule: Q01DX009 (ip), vehicle: saline 88 % of control | [9] 94 % of control | dose: 400.0 mg/kg/injection, schedule: Q04DX003 (ip), vehicle: saline 96 % of control

CCCCN(CCCC)c1ccc([N+](=O)[O-])c2no[n+]([O-])c12
inactive: dose: 15.0 mg/kg/injection, schedule: Q04DX003 (ip), vehicle: saline with Tween-80 100 % of control | dose: 30.0 mg/kg/injection, schedule: Q04DX003 (ip), vehicle: saline with Tween-80 100 % of control | dose: 60.0 mg/kg/injection, schedule: Q04DX003 (ip), vehicle: saline with Tween-80 100 % of control

Cc1cc(C)[s+]s1
inactive: [6] 94 % of control | [7] 100 % of control | dose: 50.0 mg/kg/injection, schedule: Q01DX009 (ip), vehicle: saline 103 % of control and 91 % of control | [8] 106 % of control | [9] 97 % of control
